# Test system: IFN-β secretion in THP1 cells
# Test: IFN-β secretion in THP1 cell culture (5 h)
# Type: cell-based, human
# Details: not given
# Method: The ability of compounds to stimulate the secretion of interferon-beta from THP1 cells was measured using a human IFN-β AlphaLISA kit (Perkin Elmer, Cat. No. AL265F). The basic protocol is as follows:
# The cell viability and count was ascertained using a Beckman Coulter V-Cell XR cell counter. The cells suspension was centrifuged at 200×g for 5 min at RT. […] Subsequent liquid transfers were performed using either a Matrix electronic multichannel pipette or an Agilent Bravo Automated Liquid Handling Platform.
# The assay was started by dispensing 40 μL of the previously prepared cell suspension into the wells of the plate containing compounds. After 5 h incubation at 37° C., 5% CO2 in a humidified atmosphere, the plate of cells and compounds was centrifuged at 200×g for 5 min at RT. […] To these supernatant-containing wells was added 10 μL of 5× Anti-Analyte Acceptor beads (50 μg/mL of AlphaLISA HiBlock Buffer) and incubated for 30 min at RT while shaking on an orbital plate shaker. To each well was added 10 μL of 5× Biotinylated Antibody Anti-analyte (5 nM in AlphaLISA HiBlock Buffer) and incubated on an orbital plate shaker for 60 min at RT or overnight at 4° C. To each well was added 25 μL of 2× SA-Donor beads (80 μg/mL in AlphaLISA HiBlock Buffer) and incubated for 30-45 min at RT in the dark while shaking on an orbital plate shaker. The plate was then read on a Perkin Elmer Envision (λex=680 nm, λem=[…]). The percent effect of the AlphaLISA signal at each compound concentration was calculated based on 30 uM cGAMP positive controls and 0.3% DMSO negative controls. The plot of percent effect versus the log of compound concentration was fit with a 4-parameter concentration response equation to calculate EC50 values.
# Compounds of the disclosure were evaluated for IFN-β secretion in THP1 cell culture as described above.
row,Structure (SMILES),% Effect at 30 μM relative to 2′3′-cGAMP [%]
1,"Nc1nc2c(ncn2[C@@H]2O[C@@H]3COP(=O)(O)OC4[C@@H](COP(=O)(O)OC2C3O)O[C@@H](n2cnc3c(N)ncnc32)[C@H]4F)c(=O)[nH]1 (stereo in doubt) [Example 7, (5R,7R,8R,12aR,14R,15S,15aR,16R)-7-(2-amino-6-oxo-1,6-dihydro-9H-purin-9-yl)-14-(6-amino-9H-purin-9-yl)-15-fluoro-16-hydroxyoctahydro-12H-5,8-methanofuro[3,2-l][1,3,6,9,11,2,10] pentaoxadiphosphacyclotetradecine-2,10-diolate 2,10-dioxide]",112
2,"Nc1nc2c(ncn2[C@@H]2O[C@@H]3COP(=O)(O)OC4C(F)[C@H](n5cnc6c(N)ncnc65)O[C@@H]4COP(=O)(O)OC2C3O)c(=O)[nH]1 (stereo in doubt) [Example 2, (5R,7R,8R,12aR,14R,15R,15aR,16R)-7-(2-amino-6-oxo-1,6-dihydro-9H-purin-9-yl)-14-(6-amino-9H-purin-9-yl)-15-fluoro-16-hydroxyoctahydro-12H-5,8-methanofuro[3,2-l] [1,3,6,9,11,2,10]pentaoxadiphosphacyclotetradecine-2,10-diolate 2,10-dioxide]",148
3,"Nc1nc2c(ncn2[C@@H]2O[C@@H]3COP(=O)(O)O[C@H]4[C@@H](O)[C@H](n5cnc6c(N)ncnc65)O[C@@H]4COP(=O)(O)O[C@@H]2[C@H]3O)c(=O)[nH]1 [Example 39, 2-amino-9-[(5R,7R,8R,12aR,14R,15R,15aS,16S)-14-(6-amino-9H-purin-9-yl)-2,10,15,16-tetrahydroxy-2,10-dioxidooctahydro-12H-5,8-methanofuro[3,2-l][1,3,6,9,11,2,10]pentaoxadiphosphacyclotetradecin-7-yl]-1,9-dihydro-6H-purin-6-one]",74
4,"Nc1nc2c(ncn2[C@@H]2O[C@@H]3COP(=O)(O)OC4[C@@H](COP(=O)(O)O[C@H]2C3F)O[C@@H](n2cnc3c(N)ncnc32)[C@H]4F)c(=O)[nH]1 (stereo partly drawn) [Example 26, 2-amino-9-[(2S,5R,7R,8S,10S,12aR,14R,15S,15aR,16R)-14-(6-amino-9H-purin-9-yl)-15,16-difluoro-2,10-dihydroxy-2,10-dioxidooctahydro-12H-5,8-methanofuro[3,2-l][1,3,6,9,11,2,10]pentaoxadiphosphacyclotetradecin-7-yl]-1,9-dihydro-6H-purin-6-one]",150
5,"Nc1nc2c(ncn2[C@@H]2O[C@@H]3COP(=O)(O)O[C@H]4C[C@H](n5cnc6c(N)ncnc65)O[C@@H]4COP(=O)(O)O[C@@H]2C3)c(=O)[nH]1 [Example 27, 2-amino-9-[(5S,7R,8R,12aR,14R,15aS)-14-(6-amino-9H-purin-9-yl)-2,10-dihydroxy-2,10-dioxidooctahydro-12H-5,8-methanofuro[3,2-l][1,3,6,9,11,2,10]pentaoxadiphosphacyclotetradecin-7-yl]-1,9-dihydro-6H-purin-6-one]",164

# Same assay, conditions: IFN-β secretion in THP1 cell culture, 5 h; compound at 30 μM; percent activation relative to 2′3′-cGAMP
row,Structure (SMILES),% Effect at 30 μM relative to 2′3′-cGAMP [%]
1,"Nc1nc2c(ncn2[C@@H]2S[C@@H]3COP(=O)(O)O[C@H]4[C@H](F)[C@H](n5cnc6c(=O)[nH]cnc65)O[C@@H]4COP(=O)(S)O[C@@H]2[C@@H]3O)c(=O)[nH]1 (stereo partly drawn) [Example 339, 2-amino-9-[(5R,7R,8R,12aR,14R,15S,15aR,16S)-15-fluoro-2,16-dihydroxy-2,10-dioxido-14-(6-oxo-1,6-dihydro-9H-purin-9-yl)-10-sulfanyloctahydro-12H-5,8-methanofuro[3,2-l][1,3,9,11,6,2,10]tetraoxathiadiphosphacyclotetradecin-7-yl]-1,9-dihydro-6H-purin-6-one]",175
2,"Nc1nc2c(ncn2[C@@H]2O[C@@H]3COP(=O)(S)OC4[C@@H](COP(=O)(S)OC2C3O)O[C@@H](n2cnc3c(N)ncnc32)[C@H]4F)c(=O)[nH]1 (single isomer, unassigned) [Example 90]",117
3,"Nc1nc2c(nnn2[C@@H]2O[C@@H]3COP(=O)(S)O[C@H]4[C@H](F)[C@H](n5cnc6c(=O)[nH]cnc65)O[C@@H]4COP(=O)(S)O[C@@H]2[C@@H]3F)c(=O)[nH]1 (single isomer, unassigned) [Example 343]",255
4,"Nc1nc2c(ncn2[C@@H]2O[C@@H]3COP(O)(=S)O[C@H]4[C@H](F)[C@H](n5cnc6c(N)ncnc65)O[C@@H]4COP(O)(=S)O[C@@H]2[C@@H]3F)c(=O)[nH]1 (single isomer, unassigned) [Example 245]",234
5,"Nc1nc2c(ncn2[C@@H]2O[C@@H]3COP(=O)(S)O[C@H]4[C@@H](O)[C@H](n5ccc6c(N)ncnc65)O[C@@H]4COP(=O)(S)O[C@@H]2C3)c(=O)[nH]1 (stereo partly drawn) [Example 78, 2-amino-9-[(5S,7R,8R,12aR,14R,15R,15aS)-14-(4-amino-7H-pyrrolo[2,3-d]pyrimidin-7-yl)-15-hydroxy-2,10-dioxido-2,10-disulfanyloctahydro-12H-5,8-methanofuro[3,2-l][1,3,6,9,11,2,10]pentaoxadiphosphacyclotetradecin-7-yl]-1,9-dihydro-6H-purin-6-one]",162
6,"Nc1nc2c(ncn2[C@@H]2O[C@@H]3COP(=O)(S)OC4[C@@H](COP(=O)(S)O[C@H]2C3O)O[C@@H](n2cnc3c(N)ncnc32)[C@H]4F)c(=O)[nH]1 (single isomer, unassigned) [Example 83]",133
7,"Nc1nc2c(ncn2[C@@H]2O[C@@H]3COP(=O)(S)OC4C5OC[C@]4(COP(=O)(S)OC2C3O)O[C@H]5n2cnc3c(N)ncnc32)c(=O)[nH]1 (single isomer, unassigned) [Example 95]",118
8,"Nc1nc2c(ncn2[C@@H]2O[C@@H]3CO[P@@](=O)(S)OC4[C@@H](CO[P@@](=O)(S)O[C@H]2C3O)O[C@@H](n2cnc3c(N)ncnc32)[C@H]4F)c(=O)[nH]1 (single isomer, unassigned) [Example 89]",119
9,"Nc1nc2c(ncn2[C@@H]2O[C@@H]3COP(=O)(O)O[C@H]4[C@H](F)[C@H](n5cnc6c(N)ncnc65)O[C@@H]4COP(O)(=S)O[C@@H]2[C@@H]3F)c(=O)[nH]1 (single isomer, unassigned) [Example 274]",124
10,"Nc1nc2c(ncn2[C@@H]2O[C@@H]3COP(O)(=S)O[C@H]4[C@@H](F)[C@H](n5cnc6c(N)ncnc65)O[C@@H]4COP(O)(=S)O[C@@H]2[C@@H]3F)c(=O)[nH]1 (stereo partly drawn) [Example 260, 2-amino-9-[(5R,7R,8S,12aR,14R,15R,15aR,16R)-14-(6-amino-9H-purin-9-yl)-15,16-difluoro-2,10-dihydroxy-2,10-disulfidooctahydro-12H-5,8-methanofuro[3,2-l][1,3,6,9,11,2,10]pentaoxadiphosphacyclotetradecin-7-yl]-1,9-dihydro-6H-purin-6-one]",113
11,"Nc1nc2c(ncn2[C@@H]2O[C@@H]3COP(=O)(S)O[C@H]4[C@H](F)[C@H](n5cnc6c(N)ncnc65)O[C@@H]4COP(=O)(O)O[C@@H]2[C@@H]3F)c(=O)[nH]1 (stereo partly drawn) [Example 143, 2-amino-9-[(5R,7R,8S,12aR,14R,15S,15aR,16R)-14-(6-amino-9H-purin-9-yl)-15,16-difluoro-2,10-dihydroxy-10-oxido-2-sulfidooctahydro-12H-5,8-methanofuro[3,2-l][1,3,6,9,11,2,10]pentaoxadiphosphacyclotetra-decin-7-yl]-1,9-dihydro-6H-purin-6-one]",157
12,"Nc1nc2c(nnn2[C@@H]2O[C@@H]3COP(=O)(S)O[C@H]4[C@H](F)[C@H](n5nnc6c(=O)[nH]cnc65)O[C@@H]4COP(=O)(S)O[C@@H]2C3)c(=O)[nH]1 (single isomer, unassigned) [Example 340]",306
13,"Nc1nc2c(nnn2[C@@H]2O[C@@H]3COP(=O)(S)O[C@H]4[C@H](F)[C@H](n5cnc6c(=O)[nH]cnc65)O[C@@H]4COP(=O)(S)O[C@@H]2[C@H]3F)c(=O)[nH]1 (stereo partly drawn) [Example 348, 5-amino-3-[(5R,7R,8S,12aR,14R,15S,15aR,16S)-15,16-difluoro-2,10-dioxido-14-(6-oxo-1,6-dihydro-9H-purin-9-yl)-2,10-disulfanyloctahydro-12H-5,8-methanofuro[3,2-l][1,3,6,9,11,2,10]pentaoxadiphosphacyclotetradecin-7-yl]-3,6-dihydro-7H-[1,2,3]triazolo[4,5-d]pyrimidin-7-one]",8
14,"Nc1nc2c(ncn2[C@@H]2O[C@@H]3COP(=O)(O)O[C@H]4[C@H](F)[C@H](n5nnc6c(=O)[nH]cnc65)O[C@@H]4COP(=O)(S)O[C@@H]2[C@@H]3F)c(=O)[nH]1 (single isomer, unassigned) [Example 347]",225
15,"Nc1nc2c(ncn2[C@@H]2O[C@@H]3COP(=O)(S)OC4[C@@H](COP(=O)(S)OC2C3O)O[C@@H](n2cnc3c(N)ncnc32)[C@H]4F)c(=O)[nH]1 (single isomer, unassigned) [Example 91]",106

# Reference: patent US11453697B1, “Cyclic di-nucleotide compounds as sting agonists” (Merck Sharp & Dohme Corp., priority 2015, dated 2022)
